For one data set, the target named is T1, human MrgprX1 (Homo sapiens, UniProt Q96LB2).
T1 construct: expressed in transfected cells
The experiment in a line: MrgprX1 positive allosteric modulator (PAM) calcium FLIPR assay in HEK293 cells. The format is cell-based. The settings on record: PAM activity in presence of EC20 concentration of BAM8-22; HEK293 cells stably transfected with human MrgprX1. The procedure: HEK293 cells stably transfected with human MrgprX1 were plated onto poly-D-lysine-coated, black-walled, 96-well plates at a seeding density of 12,000 cells/well and grown for two days. On the day of the experiment, cells were incubated with Fluo-4 AM 2 μM, pluronic acid 0.04% and Trypan Red 1% in HBSS (pH 7.4, 100 μL) for 1 h at 37° C. For each different passage of cells, a BAM8-22 dose response was first conducted and the BAM8-22 EC20 determined. Test compounds were then dissolved and serially diluted in DMSO, further diluted with Trypan Red (1%)-containing HBSS (50 μL) and added to cells (0.33% DMSO concentration by volume) to first monitor for agonist activity. After 2.5 min, BAM8-22 at 4-fold EC20 (50 μL) was added to cells (0.25% DMSO concentration by volume) and the cells imaged on the FLIPR for an additional 2 minutes to monitor the test compounds for PAM activity. Finally, data were normalized to fluorescence signals obtained from 250 nM of BAM8-22 (maximum) and BAM8-22 at its EC20 concentration (minimum). EC50 of a test compound was defined as the concentration required to provoke a response halfway between the minimum and maximum response in the presence of EC20 concentration of BAM8-22.

SMILES strings stand for the structures.

T1 sequence (Q96LB2 whole entry): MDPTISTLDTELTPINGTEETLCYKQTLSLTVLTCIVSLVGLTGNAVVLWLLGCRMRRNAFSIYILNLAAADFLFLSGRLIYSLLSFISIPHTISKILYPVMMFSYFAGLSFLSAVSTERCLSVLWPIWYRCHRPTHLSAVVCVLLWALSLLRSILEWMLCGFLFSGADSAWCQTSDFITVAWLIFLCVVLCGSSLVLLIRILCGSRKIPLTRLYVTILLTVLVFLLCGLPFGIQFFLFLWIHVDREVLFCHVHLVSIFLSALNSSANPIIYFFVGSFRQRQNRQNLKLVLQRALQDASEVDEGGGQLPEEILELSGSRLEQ

Broadly, the EC50 is the midpoint of the concentration-response curve. In the case of `CC1CCCCC1Oc1ncnc2sc(C(C)(C)C)c(-c3ccc(Cl)c(Cl)c3)c12` (mixture of isomers) [Compound 7ac, 6-tert-butyl-5-(3,4-dichlorophenyl)-4-(2-methylcyclohexyloxy)thieno[2,3-d]pyrimidine], the EC50 at human MrgprX1 was determined as 100 nM. Consider `Cc1ccccc1Oc1ncnc2oc(-c3ccccc3)cc12` [B, 6-Phenyl-4-(o-tolyloxy)furo[2,3-d]pyrimidine, reference compound], for which, on human MrgprX1, the concentration giving a half-maximal response (EC50) came to 1000 nM. Turning to `Cc1cccc(Oc2ncnc3oc(-c4ccccc4)cc23)c1C` [C, 4-(2,3-Dimethylphenoxy)-6-phenylfuro[2,3-d]pyrimidine, reference compound], the EC50 on human MrgprX1 turned out to be 70000 nM. Broadly, the melting point is the temperature, or range, at which the solid turns liquid. Regarding `CC(C)(C)c1sc2ncnc(OC3CCCCC3)c2c1-c1ccc(Cl)c(Cl)c1` [Compound 7aa, 6-tert-butyl-4-(cyclohexyloxy)-5-(3,4-dichlorophenyl)thieno[2,3-d]pyrimidine], the melting point amounted to 121 °C. The EC50 at human MrgprX1 is 100 nM. Turning to `CN1CCCC(Oc2ncnc3sc(C(C)(C)C)c(-c4ccc(Cl)c(Cl)c4)c23)C1` (stereo not drawn) [Compound 7ab, 6-tert-butyl-5-(3,4-dichlorophenyl)-4-(1-methylpiperidin-3-yloxy)thieno[2,3-d]pyrimidine], on human MrgprX1, the concentration giving a half-maximal response (EC50) is 6000 nM.

Take `CC(C)(C)c1sc2ncnc(OC3CC4CCC3C4)c2c1-c1ccc(Cl)c(Cl)c1` (stereo not drawn) [Compound 7ad, 4-(bicyclo[2.2.1]heptan-2-yloxy)-6-tert-butyl-5-(3,4-dichlorophenyl)thieno[2,3-d]pyrimidine]: the melting point amounted to 152 °C. At human MrgprX1, the EC50 is 300 nM. Regarding `CC(C)(C)c1sc2ncnc(OC3CCCCCC3)c2c1-c1ccc(Cl)c(Cl)c1` [Compound 7ae, 6-tert-butyl-4-(cycloheptyloxy)-5-(3,4-dichlorophenyl)thieno[2,3-d]pyrimidine], the EC50 at human MrgprX1 is 400 nM. The compound `CC(C)(C)c1sc2ncnc(OC3CCCCC3C(F)(F)F)c2c1-c1ccc(Cl)c(Cl)c1` (stereo not drawn) [Compound 7af, 6-tert-butyl-5-(3,4-dichlorophenyl)-4-(2-(trifluoromethyl)cyclohexyloxy)thieno[2,3-d]pyrimidine] registered a melting point of 139 °C. Besides, on human MrgprX1, the 50% effective concentration (EC50) stood at 100 nM. Taken in the same sequence, the figures for `CC(C)(C)c1sc2ncnc(OC3CCCCC3F)c2c1-c1ccc(Cl)c(Cl)c1` (stereo not drawn) [Compound 7ag, 6-tert-butyl-5-(3,4-dichlorophenyl)-4-(2-fluorocyclohexyloxy)thieno[2,3-d]pyrimidine] were 144 °C and 100 nM. Take `CC(C)(C)c1sc2ncnc(OC3CCCCC3(C)C)c2c1-c1ccc(Cl)c(Cl)c1` (stereo not drawn) [Compound 7ah, 6-tert-butyl-5-(3,4-dichlorophenyl)-4-(2,2-dimethylcyclohexyloxy)thieno[2,3-d]pyrimidine]: the melting point came out at 128 °C. In addition, the EC50 at human MrgprX1 worked out at 300 nM.

Compound `CC(C)(C)c1sc2ncnc(OC3(C(F)(F)F)CCCCC3)c2c1-c1ccc(Cl)c(Cl)c1` [Compound 7ai, 6-tert-butyl-5-(3,4-dichlorophenyl)-4-(1-(trifluoromethyl)cyclohexyloxy)thieno[2,3-d]pyrimidine] yielded a melting point of 142 °C. Further, the EC50 on human MrgprX1 is over 10000 nM. Take `CC(C)(C)c1sc2ncnc(Oc3ccccc3F)c2c1-c1ccc(F)c(F)c1` [Compound 7aj, 6-tert-butyl-5-(3,4-difluorophenyl)-4-(2-fluorophenoxy)thieno[2,3-d]pyrimidine]: the melting point was determined as 171 °C. With `CC(C)(C)c1sc2ncnc(Oc3c(F)cccc3F)c2c1-c1ccc(F)c(F)c1` [Compound 7ak, 6-tert-butyl-4-(2,6-difluorophenoxy)-5-(3,4-difluorophenyl)thieno[2,3-d]pyrimidine], the melting point was 185 °C. Besides, on human MrgprX1, the concentration giving a half-maximal response (EC50) turned out to be 70 nM.

`CC(C)(C)c1sc2ncnc(Oc3ccccc3OC(F)(F)F)c2c1-c1ccc(F)c(F)c1` [Compound 7am, 6-tert-butyl-5-(3,4-difluorophenyl)-4-(2-(trifluoromethoxy)phenoxy)thieno[2,3-d]pyrimidine] showed a melting point of 146 °C. Also, at human MrgprX1, the EC50 was found to be 70 nM. Taken in the same sequence, the figures for `CC(C)(C)c1sc2ncnc(Oc3ccccc3OC(F)(F)F)c2c1-c1ccc(Cl)cc1` [Compound 7an, 6-tert-butyl-5-(4-chlorophenyl)-4-(2-(trifluoromethoxy)phenoxy)thieno[2,3-d]pyrimidine] were 136 °C and 80 nM. Taken in the same sequence, the figures for `CC(C)(C)c1sc2ncnc(Oc3c(F)cccc3F)c2c1-c1ccc(Cl)cc1` [Compound 7ap, 6-tert-butyl-5-(4-chlorophenyl)-4-(2,6-difluorophenoxy)thieno[2,3-d]pyrimidine] were 176 °C and 30 nM. On to `CC(C)(C)c1sc2ncnc(Oc3ccccc3OC(F)(F)F)c2c1-c1cccc(Cl)c1` [Compound 7aq, 6-tert-butyl-5-(3-chlorophenyl)-4-(2-(trifluoromethoxy)phenoxy)thieno[2,3-d]pyrimidine], for which the melting point was 129 °C. Further, the concentration for a half-maximal effect (EC50) at human MrgprX1 was determined as 100 nM. `CC(C)(C)c1sc2ncnc(Oc3c(F)cccc3OC(F)(F)F)c2c1-c1cccc(Cl)c1` [Compound 7ar, 6-tert-butyl-5-(3-chlorophenyl)-4-(2-fluoro-6-(trifluoromethoxy)phenoxy)thieno[2,3-d]pyrimidine] came in with a melting point of 126 °C. Moreover, at human MrgprX1, the EC50 was found to be 30 nM. On to `CC(C)(C)c1sc2ncnc(Oc3c(F)cccc3F)c2c1-c1cccc(Cl)c1` [Compound 7as, 6-tert-butyl-5-(3-chlorophenyl)-4-(2,6-difluorophenoxy)thieno[2,3-d]pyrimidine], for which the melting point was determined as 146 °C. Also, the EC50 at human MrgprX1 was 50 nM. Taken in the same sequence, the figures for `CC(C)(C)c1sc2ncnc(Oc3c(F)cccc3F)c2c1-c1ccc(F)cc1` [Compound 7at, 6-tert-butyl-4-(2,6-difluorophenoxy)-5-(4-fluorophenyl)thieno[2,3-d]pyrimidine] were 186 °C and 70 nM. The like results for `CC(C)(C)c1sc2ncnc(Oc3ccccc3F)c2c1-c1ccc(F)cc1` [Compound 7au, 6-tert-butyl-4-(2-fluorophenoxy)-5-(4-fluorophenyl)thieno[2,3-d]pyrimidine] were, in that order, 194 °C and 300 nM. The like results for `CC(C)(C)c1sc2ncnc(Oc3ccccc3OC(F)(F)F)c2c1-c1cccc(F)c1` [Compound 7av, 6-tert-butyl-5-(3-fluorophenyl)-4-(2-(trifluoromethoxy)phenoxy)thieno[2,3-d]pyrimidine] were, in that order, 150 °C and 100 nM. Take `CC(C)(C)c1sc2ncnc(Oc3c(F)cccc3F)c2c1-c1cccc(F)c1` [Compound 7aw, 6-tert-butyl-4-(2,6-difluorophenoxy)-5-(3-fluorophenyl)thieno[2,3-d]pyrimidine]: the melting point worked out at 180 °C. Further, the EC50 at human MrgprX1 was 100 nM. The like results for `CC(C)(C)c1sc2ncnc(Sc3ccccc3OC(F)(F)F)c2c1-c1ccc(Cl)c(Cl)c1` [Compound 7ax, 6-tert-butyl-5-(3,4-dichlorophenyl)-4-(2-(trifluoromethoxy)phenylthio)thieno[2,3-d]pyrimidine] were, in that order, 165 °C and 200 nM. The compound `Cc1nc(Oc2ccccc2)c2ccsc2n1` [Compound 7ay, 2-methyl-4-phenoxythieno[2,3-d]pyrimidine] had a melting point of 100 °C. Further, at human MrgprX1, the EC50 is 6000 nM. As to `CCOC(=O)c1c(C(C)(C)C)sc2ncnc(Oc3c(F)cccc3OC(F)(F)F)c12` [Compound 7be, Ethyl 6-(tert-butyl)-4-(2-fluoro-6-(trifluoromethoxy)phenoxy)thieno[2,3 d]pyrimidine-5-carboxylate], at human MrgprX1, the EC50 was 60 nM.

Turning to `CC1CCCN1c1c(C(C)(C)C)sc2ncnc(Oc3c(F)cccc3OC(F)(F)F)c12` (stereo not drawn) [Compound 7bg, 6-(tert-butyl)-4-(2-fluoro-6-(trifluoromethoxy)phenoxy)-5-(2-methylpyrrolidin-1-yl)thieno[2,3-d]pyrimidine], the EC50 on human MrgprX1 came to 70 nM. Consider `CC(C)(C)c1sc2ncnc(Oc3ccc([N+](=O)[O-])cc3OC(F)(F)F)c2c1-c1ccc(Cl)c(Cl)c1` [Compound 7f, 6-tert-butyl-5-(3,4-dichlorophenyl)-4-(4-nitro-2-(trifluoromethoxy)phenoxy)thieno[2,3-d]pyrimidine], for which the EC50 at human MrgprX1 was over 100000 nM. Turning to `COc1ncccc1Oc1ncnc2sc(C(C)(C)C)c(-c3ccc(Cl)c(Cl)c3)c12` [Compound 7i, 6-tert-butyl-5-(3,4-dichlorophenyl)-4-(2-methoxypyridin-3-yloxy)thieno[2,3-d]pyrimidine], the melting point worked out at 173 °C. `CC(C)(C)c1sc2ncnc(Oc3ccccc3C#N)c2c1-c1ccc(Cl)c(Cl)c1` [Compound 7v, 2-(6-tert-butyl-5-(3,4-dichlorophenyl)thieno[2,3-d]pyrimidin-4-yloxy)benzonitrile]: the concentration for a half-maximal effect (EC50) on human MrgprX1 was 500 nM. The same measure, in the same setting: under `CN(C)C(=O)COc1ncnc2scc(-c3ccc(F)cc3)c12` [Compound A, 2-((5-(4-Fluorophenyl)thieno[2,3-d]pyrimidin-4-yl)oxy)-N,N-dimethylacetamide, reference compound] stands over 100000 nM.

On to `Cc1ccc(Oc2ncnc3sccc23)cc1` [E, 4-(p-Tolyloxy)thieno[2,3-d]pyrimidine, reference compound], for which the EC50 at human MrgprX1 stood at 900 nM.

(Values after patent US20240002395A1, “COMPOUNDS AND THEIR USE FOR TREATING NEUROPATHIC PAIN” (The Johns Hopkins University, priority 2020, published 2024).)
